The test system of data set [1] is Oryza sativa. Briefly: Effect on Oryza sativa (rice) assessed as growth rate at 10 uM relative to control. Format: organism-based. The settings on record: in vivo.
In data set [2] the test system is Oryza sativa. Description: Effect on Oryza sativa (rice) assessed as growth rate at 0.1 uM relative to control. Format: organism-based. As to conditions: in vivo.
For data set [3], the system named is Oryza sativa. Briefly: Safener indices, ratio of compound effect of Oryza sativa (rice) growth rate to relieving activity against bensulfuron-methyl induced injury to Oryza sativa growth rate at 0.1 uM.
Data set [4] concerns Oryza sativa. Briefly: Relieving activity against bensulfuron-methyl induced injury to Oryza sativa (rice) assessed as growth rate at 0.1 uM (Rbv = 46 to 53%). Format: functional.
The subject of data set [5] is Oryza sativa. Description: Relieving activity against bensulfuron-methyl induced injury to Oryza sativa (rice) assessed as growth rate at 10 uM (Rbv = 46 to 53%). Format: functional.
For data set [6], the system named is Oryza sativa. Briefly: Relieving activity against bensulfuron-methyl induced injury to Oryza sativa (rice) assessed as growth rate at 1 uM (Rbv = 46 to 53%). Format: functional.
Data set [7] in a line: Hydrophobicity, log K of the compound. As to conditions: octanol/water. Format: physicochemical.
Data set [8] relates to Oryza sativa. Description: Safener indices, ratio of compound effect of Oryza sativa (rice) growth rate to relieving activity against bensulfuron-methyl induced injury to Oryza sativa growth rate at 10 uM.
Data set [9] deals with Oryza sativa. Description: Effect on Oryza sativa (rice) assessed as growth rate at 1 uM relative to control. It is filed as organism-based. The settings on record: in vivo.
Data set [10] has as its system Oryza sativa. Briefly: Safener indices, ratio of compound effect of Oryza sativa (rice) growth rate to relieving activity against bensulfuron-methyl induced injury to Oryza sativa growth rate at 1 uM.

Take `C[C@@H](NC(=O)Nc1cc(C(F)(F)F)cc(C(F)(F)F)c1)c1ccccc1`: the Activity with Oryza sativa [1] is listed as 53%; in the data set on Oryza sativa [2], 100%; in the data set with Oryza sativa [4], 56%; in the data set with Oryza sativa [5], 49%; in the data set on Oryza sativa [6], 65%; in the data set with Oryza sativa [9], 93%. The results for the Ratio in the data set on Oryza sativa [3], with Oryza sativa [8] and in the data set with Oryza sativa [10] were 10, 30 and 34, respectively. In addition, in data set [7], the “log K” value is listed as 0.831.
As for `CCCCCCc1ccc(NC(=O)N[C@@H](C)c2ccccc2)cc1`, the Activity in the data set with Oryza sativa [1] amounted to 99%; in the data set on Oryza sativa [2], 99%; in the data set on Oryza sativa [4], 51%; in the data set with Oryza sativa [5], 61%; in the data set with Oryza sativa [6], 54%; in the data set with Oryza sativa [9], 100%. In addition, the Ratio in the data set on Oryza sativa [3] is recorded as 6; with Oryza sativa [8], 25; in the data set with Oryza sativa [10], 11. The “log K” value in data set [7] came out at 1.081.
For `C[C@@H](NC(=O)Nc1ccccc1I)c1ccccc1`, the Activity came out at 96% with Oryza sativa [1]; 100% in the data set on Oryza sativa [2]; 61% with Oryza sativa [4]; 84% in the data set on Oryza sativa [5]; 68% with Oryza sativa [6]; 100% in the data set on Oryza sativa [9]. Moreover, the Ratio with Oryza sativa [3] is recorded as 19; in the data set with Oryza sativa [8], 69; with Oryza sativa [10], 34. The “log K” value in data set [7] came out at 0.502.
Turning to `C[C@@H](NC(=O)Nc1cccc(Br)c1)c1ccccc1`, the Activity is 99% in the data set with Oryza sativa [1]; 100% in the data set with Oryza sativa [2]; 66% in the data set on Oryza sativa [4]; 92% with Oryza sativa [5]; 80% with Oryza sativa [6]; 100% with Oryza sativa [9]. Moreover, the values for the Ratio with Oryza sativa [3], in the data set on Oryza sativa [8] and in the data set on Oryza sativa [10] were 31, 85 and 59, respectively. Also, the “log K” value in data set [7] is given as 0.512.
Consider `CCCCc1ccc(NC(=O)N[C@H](C)c2ccccc2)cc1`, for which the Activity in the data set on Oryza sativa [1] amounted to 28%; with Oryza sativa [2], 100%; in the data set with Oryza sativa [4] it was 57%; in the data set on Oryza sativa [5], 28%; in the data set on Oryza sativa [6], 38%; with Oryza sativa [9], 32%. The Ratio in the data set with Oryza sativa [3] turned out to be 13; in the data set on Oryza sativa [8], 16; with Oryza sativa [10] it was 26. In addition, the “log K” value in data set [7] came to 0.76.
Consider `Cc1ccccc1NC(=O)N[C@H](C)c1ccccc1`, for which the Activity is recorded as 99% in the data set on Oryza sativa [1]; 100% in the data set on Oryza sativa [2]; 52% in the data set on Oryza sativa [4]; 71% in the data set with Oryza sativa [5]; 55% in the data set with Oryza sativa [6]; 100% in the data set with Oryza sativa [9]. Besides, the Ratio in the data set with Oryza sativa [3] came to 6; in the data set with Oryza sativa [8] it was 42; in the data set on Oryza sativa [10], 12. In data set [7], the “log K” value stood at 0.337.
Take `CCCCCc1ccc(NC(=O)N[C@H](C)c2ccccc2)cc1`: the Activity in the data set on Oryza sativa [1] is listed as 97%; with Oryza sativa [2], 100%; in the data set with Oryza sativa [4], 54%; in the data set with Oryza sativa [5], 69%; in the data set on Oryza sativa [6] it was 65%; with Oryza sativa [9] it was 101%. Besides, the results for the Ratio with Oryza sativa [3], in the data set with Oryza sativa [8] and with Oryza sativa [10] were 3, 38 and 27, respectively. Further, in data set [7], the “log K” value was 0.912.
For the compound `Cc1cccc(NC(=O)N[C@@H](C)c2ccccc2)c1`, the Activity with Oryza sativa [1] is 100%; with Oryza sativa [2], 99%; in the data set on Oryza sativa [4] it was 63%; in the data set with Oryza sativa [5], 89%; in the data set on Oryza sativa [6], 79%; with Oryza sativa [9], 100%. The Ratio is 27 in the data set with Oryza sativa [3], 79 in the data set on Oryza sativa [8] and 58 in the data set on Oryza sativa [10]. In addition, the “log K” value in data set [7] is recorded as 0.374.
Consider `C[C@H](NC(=O)Nc1ccc(Br)cc1)c1ccccc1`, for which the Activity was 96% in the data set on Oryza sativa [1]; 98% in the data set on Oryza sativa [2]; 62% with Oryza sativa [4]; 84% in the data set with Oryza sativa [5]; 79% with Oryza sativa [6]; 97% with Oryza sativa [9]. For the same compound, the Ratio was found to be 24 in the data set with Oryza sativa [3], 69 with Oryza sativa [8] and 59 in the data set on Oryza sativa [10]. For the same compound, the “log K” value in data set [7] is recorded as 0.488.
For the compound `C[C@H](NC(=O)Nc1ccccc1C(C)(C)C)c1ccccc1`, the Activity was 100% in the data set with Oryza sativa [1]; 101% in the data set with Oryza sativa [2]; 52% with Oryza sativa [4]; 66% in the data set on Oryza sativa [5]; 57% in the data set with Oryza sativa [6]; 99% in the data set with Oryza sativa [9]. Besides, the values for the Ratio in the data set on Oryza sativa [3], in the data set on Oryza sativa [8] and with Oryza sativa [10] were 3, 31 and 14, respectively. The “log K” value in data set [7] is 0.535.
Regarding `C[C@H](NC(=O)Nc1cccc(Cl)c1Cl)c1ccccc1`, the Activity in the data set with Oryza sativa [1] is listed as 101%; in the data set on Oryza sativa [2], 100%; with Oryza sativa [4] it was 89%; with Oryza sativa [5], 98%; with Oryza sativa [6], 96%; in the data set with Oryza sativa [9], 100%. For the same compound, the Ratio is 76 in the data set with Oryza sativa [3], 96 in the data set with Oryza sativa [8] and 91 with Oryza sativa [10]. Also, the “log K” value in [7] was found to be 0.646.
For the compound `C[C@H](NC(=O)Nc1cc(F)ccc1F)c1ccccc1`, the Activity turned out to be 99% in the data set with Oryza sativa [1]; 100% in the data set with Oryza sativa [2]; 74% in the data set on Oryza sativa [4]; 96% in the data set on Oryza sativa [5]; 89% in the data set with Oryza sativa [6]; 98% with Oryza sativa [9]. Besides, the Ratio in the data set on Oryza sativa [3] was determined as 47; in the data set on Oryza sativa [8], 92; in the data set with Oryza sativa [10] it was 77. In addition, in data set [7], the “log K” value is 0.464.
Consider `C[C@@H](NC(=O)Nc1ccc(F)cc1F)c1ccccc1`, for which the Activity is listed as 93% with Oryza sativa [1]; 100% in the data set with Oryza sativa [2]; 53% in the data set with Oryza sativa [4]; 82% with Oryza sativa [5]; 61% with Oryza sativa [6]; 100% in the data set on Oryza sativa [9]. In addition, the Ratio in the data set on Oryza sativa [3] is given as 4; in the data set on Oryza sativa [8], 66; in the data set on Oryza sativa [10], 21. In addition, the “log K” value in [7] is recorded as 0.394.
`C[C@H](NC(=O)Nc1cccc(Br)c1)c1ccccc1`: the Activity in the data set with Oryza sativa [1] is 99%; with Oryza sativa [2] it was 100%; in the data set on Oryza sativa [4] it was 66%; with Oryza sativa [5], 92%; in the data set on Oryza sativa [6], 80%; in the data set on Oryza sativa [9] it was 100%. Besides, the Ratio in the data set on Oryza sativa [3] is reported as 31; with Oryza sativa [8], 85; in the data set with Oryza sativa [10], 59. In addition, the “log K” value in [7] amounted to 0.512.
As for `C[C@@H](NC(=O)Nc1ccc(Br)cc1)c1ccccc1`, the Activity in the data set on Oryza sativa [1] came to 87%; in the data set with Oryza sativa [2], 100%; in the data set on Oryza sativa [4], 53%; with Oryza sativa [5] it was 86%; in the data set with Oryza sativa [6], 77%; with Oryza sativa [9], 95%. Further, the results for the Ratio in the data set on Oryza sativa [3], in the data set on Oryza sativa [8] and with Oryza sativa [10] were 5, 76 and 55, respectively. Besides, the “log K” value in [7] is 0.488.
Consider `C[C@H](NC(=O)Nc1cc(F)cc(F)c1)c1ccccc1`, for which the Activity came out at 99% with Oryza sativa [1]; 99% with Oryza sativa [2]; 64% in the data set with Oryza sativa [4]; 93% with Oryza sativa [5]; 79% in the data set on Oryza sativa [6]; 99% in the data set with Oryza sativa [9]. Further, the Ratio with Oryza sativa [3] is given as 30; with Oryza sativa [8] it was 85; with Oryza sativa [10] it was 58. Also, in [7], the “log K” value was determined as 0.452.
For `C[C@H](NC(=O)Nc1c(Cl)cccc1Cl)c1ccccc1`, the Activity with Oryza sativa [1] was 99%; in the data set on Oryza sativa [2] it was 100%; in the data set with Oryza sativa [4] it was 62%; in the data set on Oryza sativa [5] it was 74%; with Oryza sativa [6] it was 69%; with Oryza sativa [9] it was 99%. For the same compound, the Ratio with Oryza sativa [3] came to 21; in the data set on Oryza sativa [8] it was 47; in the data set on Oryza sativa [10] it was 36. In addition, the “log K” value in data set [7] is 0.326.
As to `COc1ccccc1NC(=O)N[C@H](C)c1ccccc1`, the Activity with Oryza sativa [1] amounted to 96%; in the data set with Oryza sativa [2], 100%; with Oryza sativa [4] it was 54%; in the data set with Oryza sativa [5], 72%; with Oryza sativa [6] it was 55%; with Oryza sativa [9], 105%. Further, the Ratio in the data set with Oryza sativa [3] is -1; in the data set on Oryza sativa [8], 42; in the data set with Oryza sativa [10], -4. Moreover, the “log K” value in [7] is listed as 0.343.
`C[C@@H](NC(=O)Nc1cccc(F)c1)c1ccccc1`: the Activity with Oryza sativa [1] amounted to 84%; in the data set with Oryza sativa [2], 99%; in the data set with Oryza sativa [4], 47%; in the data set with Oryza sativa [5], 67%; with Oryza sativa [6], 57%; in the data set on Oryza sativa [9], 95%. For the same compound, the Ratio in the data set on Oryza sativa [3] is reported as -4; in the data set with Oryza sativa [8], 44; in the data set with Oryza sativa [10] it was 22. For the same compound, the “log K” value in [7] was 0.363.
On to `C[C@H](NC(=O)Nc1cc(C(F)(F)F)cc(C(F)(F)F)c1)c1ccccc1`, for which the Activity came to 86% in the data set on Oryza sativa [1]; 101% in the data set with Oryza sativa [2]; 57% in the data set on Oryza sativa [4]; 69% in the data set with Oryza sativa [5]; 65% in the data set on Oryza sativa [6]; 95% with Oryza sativa [9]. Also, the Ratio in the data set with Oryza sativa [3] is 13; in the data set on Oryza sativa [8] it was 44; with Oryza sativa [10], 33. The “log K” value in data set [7] is listed as 0.831.

The values are drawn from ChEMBL document CHEMBL3045406, “Enantioselective Relieving Activity of α-Methylbenzylphenylureas toward Bensulfuron-methyl Injury to Rice (Oryza sativa)” (Biosci Biotechnol Biochem, 1999).
